The test deals with Mcl-1 (Homo sapiens, UniProt Q07820). As to the kind of experiment: FPA competition assay, inhibition of Mcl-1 / FITC-Mcl-BH3 binding. The settings on record: 250 nM Mcl-1 and 250 nM FITC-Mcl-BH3 probe, pH 7.5, cells printed in nM. The source says: Experiment 1 the Inhibition Assay of Compounds 1˜12 to Mcl-1
FPA competition assays were adopted to evaluate the binding affinity of compounds to Mcl-1. The FITC labelled BH3 peptide of Mcl-1 (FITC-Mcl-BH3, FITC-AHx-KALETLRRVGD GVQRNHITAF-NH2) was synthesized and used as fluorescence probe in the FPA competition assays. The binding of FITC-Mcl-BH3 and Mcl-1 can enhance the polarized light. While the binding of compounds and Mcl-1 would reduce the polarization, IC50 is the compound concentration that displaces 50% of the fluorescent ligand from the ligand-receptor complex.
All assays were performed in the assay buffer (pH 7.5) composed of 20 mM Tris, 50 mM NaCl, 3 mM DTT and 2% DMSO. The FPA competition assays were carried out in the 96-well, black, flat-bottom plates (Nunc). To check the interference effects of candidate compounds on the interaction between Mcl-1 and FITC-Mcl-BH3, solutions containing 250 nM Mcl-1 and 250 nM fluorescence probes were titrated with […] selected compounds (0-128 μM, 2-times gradient) dissolved in the assay buffer. The emission fluorescence changes were recorded from 480 to 540 nm by TECAN Infinite M1000 Microplate Spectrophotometer with excitation wavelength being 450 nm. The IC50 were calculated.

Each structure is given as a SMILES string.

Mcl-1, sequence (Q07820 whole entry, species assumed): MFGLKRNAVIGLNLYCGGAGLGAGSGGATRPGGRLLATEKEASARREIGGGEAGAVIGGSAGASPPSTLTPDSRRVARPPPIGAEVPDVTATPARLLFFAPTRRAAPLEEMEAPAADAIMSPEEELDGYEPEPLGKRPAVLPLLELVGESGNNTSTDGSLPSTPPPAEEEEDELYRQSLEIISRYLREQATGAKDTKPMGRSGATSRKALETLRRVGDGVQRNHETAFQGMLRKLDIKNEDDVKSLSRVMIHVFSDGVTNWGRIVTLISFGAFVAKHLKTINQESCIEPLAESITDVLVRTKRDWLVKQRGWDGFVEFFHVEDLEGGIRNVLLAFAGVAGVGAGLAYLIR

Broadly, the IC50 is the concentration that gives 50% inhibition. A higher IC50 goes with weaker potency in that assay. The compound `O=C1N=C(N2CCC(CCO)CC2)SC1=Cc1ccc(Cl)cc1` [Compound 12] showed a 50% inhibitory concentration (IC50) of 369 nM. This counts as sub-micromolar.
For the compound `O=C1N=C(N2CCN(CCO)CC2)S/C1=C\c1ccc(Cl)cc1` [Compound 5], the concentration for half-maximal inhibition (IC50) was 89.7 nM. Against the preceding compound, the IC50 is about 4.1-fold lower.
Next, `COc1ccc(C=C2SC(N3CCC(CCO)CC3)=NC2=O)cc1` [Compound 11]: 52.1 nM.
Under `COc1ccc(/C=C2\SC(N3CCN(CCO)CC3)=NC2=O)cc1` [Compound 4] stands 161 nM; under `O=C1N=C(N2CCC(CCO)CC2)SC1=Cc1ccccc1` [Compound 8], 589 nM; under `Cc1ccc(C=C2SC(N3CCN(CCO)CC3)=NC2=O)cc1` [Compound 3], 401 nM.
